{"source": "ChEMBL document CHEMBL4406882", "about": "“The plant-derived chalcone Xanthoangelol targets the membrane of Gram-positive bacteria” (Bioorg Med Chem, 2019)", "key": {"[1]": {"system": "Acinetobacter baumannii", "assay": "Antibacterial activity against Acinetobacter baumannii ATCC BAA-747 by broth micro dilution method", "format": "functional"}, "[2]": {"system": "Staphylococcus aureus", "assay": "Antibacterial activity against methicillin-resistant Staphylococcus aureus ATCC 700699 assessed as delay in growth at 1.56 uM measured for 6 hrs", "format": "functional, organism-based"}, "[3]": {"system": "Enterococcus faecalis", "assay": "Antibacterial activity against vancomycin-resistant Enterococcus faecalis ATCC 700221 by broth micro dilution method", "format": "functional"}, "[4]": {"system": "Bacillus subtilis", "assay": "Induction of TrxA protein expression in Bacillus subtilis 168 at 2.3 uM incubated for 15 mins by 35S-methionine pulse labeling based 2D-PAGE analysis", "format": "functional, organism-based"}, "[5]": {"system": "Bacillus subtilis", "assay": "Antibacterial activity against Bacillus subtilis 168 by broth micro dilution method", "format": "functional"}, "[6]": {"system": "Bacillus subtilis", "assay": "Induction of YfmJ protein expression in Bacillus subtilis 168 at 2.3 uM incubated for 15 mins by 35S-methionine pulse labeling based 2D-PAGE analysis", "format": "functional, organism-based"}, "[7]": {"system": "Acinetobacter baumannii", "assay": "Antibacterial activity against multidrug-resistant Acinetobacter baumannii ATCC BAA-1605 by broth micro dilution method", "format": "functional"}, "[8]": {"system": "Bacillus subtilis", "assay": "Induction of AhpF protein expression in Bacillus subtilis 168 at 2.3 uM incubated for 15 mins by 35S-methionine pulse labeling based 2D-PAGE analysis", "format": "functional, organism-based"}, "[9]": {"system": "Staphylococcus aureus", "assay": "Antibacterial activity against methicillin-resistant Staphylococcus aureus ATCC 700699 by broth micro dilution method", "format": "functional"}, "[10]": {"system": "Bacillus subtilis", "assay": "Induction of YuaE protein expression in Bacillus subtilis 168 at 2.3 uM incubated for 15 mins by 35S-methionine pulse labeling based 2D-PAGE analysis", "format": "functional, organism-based"}, "[11]": {"system": "Staphylococcus aureus", "assay": "Induction of membrane integrity impairment in methicillin resistant Staphylococcus aureus Mu50 harboring GFP reporter plasmid assessed as increase in release of GFP at 1 to 16 times MIC incubated for 3 to 6 hrs by […]", "format": "functional, organism-based"}, "[12]": {"system": "Bacillus subtilis", "assay": "Induction of GroEL.1 protein expression in Bacillus subtilis 168 at 2.3 uM incubated for 15 mins by 35S-methionine pulse labeling based 2D-PAGE analysis", "format": "functional, organism-based"}, "[13]": {"system": "Staphylococcus aureus", "assay": "Antibacterial activity against mid-exponential growth phase of methicillin-resistant Staphylococcus aureus ATCC 700699 assessed as increase in cell lysis at 12.5 to 25 uM", "format": "functional, organism-based"}, "[14]": {"system": "Bacillus subtilis", "assay": "Induction of CysK protein expression in Bacillus subtilis 168 at 2.3 uM incubated for 15 mins by 35S-methionine pulse labeling based 2D-PAGE analysis", "format": "functional, organism-based"}, "[15]": {"system": "Bacillus subtilis", "assay": "Induction of HisG protein expression in Bacillus subtilis 168 at 2.3 uM incubated for 15 mins by 35S-methionine pulse labeling based 2D-PAGE analysis", "format": "functional, organism-based"}, "[16]": {"system": "Bacillus subtilis", "assay": "Induction of YkgB protein expression in Bacillus subtilis 168 at 2.3 uM incubated for 15 mins by 35S-methionine pulse labeling based 2D-PAGE analysis", "format": "functional, organism-based"}, "[17]": {"system": "MRC5", "assay": "(§1) Cytotoxicity against human MRC5 cells assessed as reduction in cell viability incubated for 48 hrs by resazurin reagent based assay", "conditions": "Homo sapiens, MRC5, 48 h"}, "[18]": {"assay": "as §1", "conditions": "human, MRC5 cells"}, "[19]": {"system": "Bacillus subtilis", "assay": "Induction of FabG protein expression in Bacillus subtilis 168 at 2.3 uM incubated for 15 mins by 35S-methionine pulse labeling based 2D-PAGE analysis", "format": "functional, organism-based"}, "[20]": {"system": "Bacillus subtilis", "assay": "Induction of LiaH.2 protein expression in Bacillus subtilis 168 at 2.3 uM incubated for 15 mins by 35S-methionine pulse labeling based 2D-PAGE analysis", "format": "functional, organism-based"}, "[21]": {"system": "Bacillus subtilis", "assay": "Induction of PpaC protein expression in Bacillus subtilis 168 at 2.3 uM incubated for 15 mins by 35S-methionine pulse labeling based 2D-PAGE analysis", "format": "functional, organism-based"}, "[22]": {"system": "Staphylococcus aureus", "assay": "Antibacterial activity against Staphylococcus aureus ATCC 25923 by broth micro dilution method", "format": "functional"}, "[23]": {"assay": "Selectivity index, ratio of IC50 for human CLS54 cells to MIC90 for methicillin-resistant Staphylococcus aureus ATCC 700699", "format": "toxicity", "conditions": "read-out: Selectivity Index"}, "[24]": {"system": "Pseudomonas aeruginosa", "assay": "Antibacterial activity against Pseudomonas aeruginosa ATCC 27853 by broth micro dilution method", "format": "functional"}, "[25]": {"system": "Bacillus subtilis", "assay": "Induction of YceH protein expression in Bacillus subtilis 168 at 2.3 uM incubated for 15 mins by 35S-methionine pulse labeling based 2D-PAGE analysis", "format": "functional, organism-based"}, "[26]": {"system": "Bacillus subtilis", "assay": "Induction of SufD protein expression in Bacillus subtilis 168 at 2.3 uM incubated for 15 mins by 35S-methionine pulse labeling based 2D-PAGE analysis", "format": "functional, organism-based"}, "[27]": {"system": "Staphylococcus aureus", "assay": "Induction of membrane integrity impairment in methicillin-resistant Staphylococcus aureus ATCC 700699 at 0.5 to 4 times MIC measured for 30 mins by DiOC2(3) probe based fluorescence assay", "format": "functional, organism-based"}, "[28]": {"system": "Enterococcus faecalis", "assay": "Antibacterial activity against Enterococcus faecalis ATCC 35667 by broth micro dilution method", "format": "functional"}, "[29]": {"system": "Bacillus subtilis", "assay": "Induction of YvlB protein expression in Bacillus subtilis 168 at 2.3 uM incubated for 15 mins by 35S-methionine pulse labeling based 2D-PAGE analysis", "format": "functional, organism-based"}, "[30]": {"system": "Staphylococcus aureus", "assay": "Antibacterial activity against methicillin-resistant Staphylococcus aureus ATCC 700699 assessed as delay in growth at 6.25 uM measured for 24 hrs relative to control", "format": "functional"}, "[31]": {"system": "Bacillus subtilis", "assay": "Induction of PdhA protein expression in Bacillus subtilis 168 at 2.3 uM incubated for 15 mins by 35S-methionine pulse labeling based 2D-PAGE analysis", "format": "functional, organism-based"}, "[32]": {"system": "Bacillus subtilis", "assay": "Induction of DnaK.2 protein expression in Bacillus subtilis 168 at 2.3 uM incubated for 15 mins by 35S-methionine pulse labeling based 2D-PAGE analysis", "format": "functional, organism-based"}, "[33]": {"system": "Bacillus subtilis", "assay": "Induction of YqiG protein expression in Bacillus subtilis 168 at 2.3 uM incubated for 15 mins by 35S-methionine pulse labeling based 2D-PAGE analysis", "format": "functional, organism-based"}, "[34]": {"system": "Bacillus subtilis", "assay": "Induction of SodA protein expression in Bacillus subtilis 168 at 2.3 uM incubated for 15 mins by 35S-methionine pulse labeling based 2D-PAGE analysis", "format": "functional, organism-based"}, "[35]": {"system": "Bacillus subtilis", "assay": "Induction of YhfK protein expression in Bacillus subtilis 168 at 2.3 uM incubated for 15 mins by 35S-methionine pulse labeling based 2D-PAGE analysis", "format": "functional, organism-based"}, "[36]": {"system": "Bacillus subtilis", "assay": "Induction of HisI protein expression in Bacillus subtilis 168 at 2.3 uM incubated for 15 mins by 35S-methionine pulse labeling based 2D-PAGE analysis", "format": "functional, organism-based"}, "[37]": {"system": "Bacillus subtilis", "assay": "Induction of Hom protein expression in Bacillus subtilis 168 at 2.3 uM incubated for 15 mins by 35S-methionine pulse labeling based 2D-PAGE analysis", "format": "functional, organism-based"}, "[38]": {"system": "Bacillus subtilis", "assay": "Induction of Hag protein expression in Bacillus subtilis 168 at 2.3 uM incubated for 15 mins by 35S-methionine pulse labeling based 2D-PAGE analysis", "format": "functional, organism-based"}, "[39]": {"system": "Bacillus subtilis", "assay": "Induction of GroES protein expression in Bacillus subtilis 168 at 2.3 uM incubated for 15 mins by 35S-methionine pulse labeling based 2D-PAGE analysis", "format": "functional, organism-based"}, "[40]": {"system": "Enterococcus faecalis", "assay": "Antibacterial activity against vancomycin-resistant Enterococcus faecalis ATCC 51299 by broth micro dilution method", "format": "functional"}, "[41]": {"assay": "Selectivity index, ratio of IC50 for human HepG2 cells to MIC90 for methicillin-resistant Staphylococcus aureus ATCC 700699", "format": "toxicity", "conditions": "read-out: Selectivity Index"}}, "note": "Activity calls are given as the source filed them. The calls are words filed in the database; no cut-off is given here.", "data": [{"compound": "CC(C)=CCC/C(C)=C/Cc1c(O)ccc(C(=O)/C=C/c2ccc(O)cc2)c1O", "note": "[XANTHOANGELOL]", "values": [{"measurement": "MIC", "setting": "[1]", "value": "> 100", "unit": "µM"}, {"measurement": "Activity", "setting": "[2]", "value": "Active"}, {"measurement": "MIC", "setting": "[3]", "value": 3.12, "unit": "µM"}, {"measurement": "Activity", "setting": "[4]", "value": "Active"}, {"measurement": "MIC", "setting": "[5]", "value": 3.12, "unit": "µM"}, {"measurement": "Activity", "setting": "[6]", "value": "Active"}, {"measurement": "MIC", "setting": "[7]", "value": "> 100", "unit": "µM"}, {"measurement": "Activity", "setting": "[8]", "value": "Active"}, {"measurement": "MIC", "setting": "[9]", "value": 3.12, "unit": "µM"}, {"measurement": "MIC50", "setting": "[9]", "value": 0.96, "unit": "µM"}, {"measurement": "MIC90", "setting": "[9]", "value": 1.33, "unit": "µM"}, {"measurement": "Activity", "setting": "[10]", "value": "Active"}, {"measurement": "Activity", "setting": "[11]", "value": "Active"}, {"measurement": "Activity", "setting": "[12]", "value": "Active"}, {"measurement": "Activity", "setting": "[13]", "value": "Active"}, {"measurement": "Activity", "setting": "[14]", "value": "Active"}, {"measurement": "Activity", "setting": "[15]", "value": "Active"}, {"measurement": "Activity", "setting": "[16]", "value": "Active"}, {"measurement": "IC50", "setting": "[17]", "value": 21.7, "unit": "µM"}, {"measurement": "IC90 at 48 h", "setting": "[18]", "value": 27.6, "unit": "µM"}, {"measurement": "Activity", "setting": "[19]", "value": "Active"}, {"measurement": "Activity", "setting": "[20]", "value": "Active"}, {"measurement": "Activity", "setting": "[21]", "value": "Active"}, {"measurement": "MIC", "setting": "[22]", "value": 6.25, "unit": "µM"}, {"measurement": "selectivity ratio", "setting": "[23]", "value": 44.2}, {"measurement": "MIC", "setting": "[24]", "value": "> 100", "unit": "µM"}, {"measurement": "Activity", "setting": "[25]", "value": "Active"}, {"measurement": "Activity", "setting": "[26]", "value": "Active"}, {"measurement": "Activity", "setting": "[27]", "value": "Active"}, {"measurement": "MIC", "setting": "[28]", "value": 12.5, "unit": "µM"}, {"measurement": "Activity", "setting": "[29]", "value": "Active"}, {"measurement": "Activity", "setting": "[30]", "value": 100, "unit": "%"}, {"measurement": "Activity", "setting": "[31]", "value": "Active"}, {"measurement": "Activity", "setting": "[32]", "value": "Active"}, {"measurement": "Activity", "setting": "[33]", "value": "Active"}, {"measurement": "Activity", "setting": "[34]", "value": "Active"}, {"measurement": "Activity", "setting": "[35]", "value": "Active"}, {"measurement": "Activity", "setting": "[36]", "value": "Active"}, {"measurement": "Activity", "setting": "[37]", "value": "Active"}, {"measurement": "Activity", "setting": "[38]", "value": "Active"}, {"measurement": "Activity", "setting": "[39]", "value": "Active"}, {"measurement": "MIC", "setting": "[40]", "value": 6.25, "unit": "µM"}, {"measurement": "selectivity ratio", "setting": "[41]", "value": 10.3}]}]}
